# Test results from article PMC9661477, “New Dual P-Glycoprotein (P-gp) and Human Carbonic Anhydrase XII (hCA XII) Inhibitors as Multidrug Resistance (MDR) Reversers in Cancer Cells” (Journal of Medicinal Chemistry, 2022).
# Where two headings read alike, the source gives them in different places.
# How the values were obtained:
# [1] = molecular target: hCA I (Homo sapiens, UniProt P00915); assay: stopped-flow CO2 hydrase assay, hCA I; conditions: read-out: Ki hCA I; stopped-flow technique, mean from three different assays
# Chain of hCA I (P00915 whole entry): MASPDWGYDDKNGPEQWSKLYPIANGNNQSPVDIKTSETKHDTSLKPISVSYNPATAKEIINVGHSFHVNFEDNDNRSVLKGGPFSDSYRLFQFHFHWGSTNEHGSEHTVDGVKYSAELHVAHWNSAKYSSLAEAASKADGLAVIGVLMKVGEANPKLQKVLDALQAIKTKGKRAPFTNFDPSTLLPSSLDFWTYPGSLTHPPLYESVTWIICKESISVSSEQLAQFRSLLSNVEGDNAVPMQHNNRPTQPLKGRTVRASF
# Excerpt: (§1) An SX.18MV-R Applied Photophysics (Oxford, U.K.) stopped-flow instrument has been used to assay the catalytic/inhibition of various CA isozymes.[38] […] The inhibition constants were obtained by nonlinear least-squares methods using the Cheng–Prusoff equation, as reported earlier,[32] and represent the mean from at least three different determinations.
# [2] = molecular target: hCA II (Homo sapiens, UniProt P00918); assay: stopped-flow CO2 hydrase assay, hCA II; conditions: read-out: Ki hCA II; stopped-flow technique, mean from three different assays
# Excerpt: as §1
# [3] = molecular target: hCA IX (Homo sapiens, UniProt Q16790); assay: stopped-flow CO2 hydrase assay, hCA IX
# Excerpt: as §1
# [4] = read-out: Ki hCA IX, stopped-flow technique, mean from three different assays
Ki [1] [µM],Ki [2] [µM],"Ki [3, 4] [µM]",Ki [3] [µM],Compound
> 10,> 10,0.0438,,"COc1cc(/C=C/C(=O)OCCCN(CCCCCCCOC(=O)c2cc(OC)c(OC)c(OC)c2)CCCOc2ccc3ccc(=O)oc3c2)cc(OC)c1OC [Compound 22, (E)-7-((3-((2-Oxo-2H-chromen-7-yl)oxy)propyl)(3-((3-(3,4,5-trimethoxyphenyl)acryloyl)oxy)propyl)amino)heptyl 3,4,5-Trimethoxybenzoate]"
> 10,> 10,0.0081,< 0.01,"COc1cc(/C=C/C(=O)OCCCCCCN(CCCOC(=O)/C=C/c2cc(OC)c(OC)c(OC)c2)CCCOc2ccc3ccc(=O)oc3c2)cc(OC)c1OC [Compound 10, (E)-6-((3-((2-Oxo-2H-chromen-7-yl)oxy)propyl)(3-(((E)-3-(3,4,5-trimethoxyphenyl)acryloyl)oxy)propyl)amino)hexyl 3-(3,4,5-Trimethoxyphenyl)acrylate]"
> 10,> 10,0.0079,< 0.01,"COc1cc(/C=C/C(=O)OCCCCCN(CCCOC(=O)c2c3ccccc3cc3ccccc23)CCCOc2ccc3ccc(=O)oc3c2)cc(OC)c1OC [Compound 3, (E)-3-((3-((2-Oxo-2H-chromen-7-yl)oxy)propyl)(5-((3-(3,4,5-trimethoxyphenyl)acryloyl)oxy)pentyl)amino)propyl Anthracene-9-carboxylate]"
> 10,> 10,0.0502,,"COc1cc(/C=C/C(=O)OCCCCCCN(CCCOC(=O)c2cc(OC)c(OC)c(OC)c2)CCCOc2ccc3ccc(=O)oc3c2)cc(OC)c1OC [Compound 11, (E)-3-((3-((2-Oxo-2H-chromen-7-yl)oxy)propyl)(6-((3-(3,4,5-trimethoxyphenyl)acryloyl)oxy)hexyl)amino)propyl 3,4,5-Trimethoxybenzoate]"
> 10,> 10,0.0588,,"COc1cc(/C=C/C(=O)OCCCN(CCCCCOC(=O)c2cc(OC)c(OC)c(OC)c2)CCCOc2ccc3ccc(=O)oc3c2)cc(OC)c1OC [Compound 4, (E)-5-((3-((2-Oxo-2H-chromen-7-yl)oxy)propyl)(3-((3-(3,4,5-trimethoxyphenyl)acryloyl)oxy)propyl)amino)pentyl 3,4,5-Trimethoxybenzoate]"
> 10,> 10,0.0052,< 0.01,"COc1cc(/C=C/C(=O)OCCCCCCCN(CCCOC(=O)c2cc(OC)c(OC)c(OC)c2)CCCOc2ccc3ccc(=O)oc3c2)cc(OC)c1OC [Compound 20, (E)-3-((3-((2-Oxo-2H-chromen-7-yl)oxy)propyl)(7-((3-(3,4,5-trimethoxyphenyl)acryloyl)oxy)heptyl)amino)propyl 3,4,5-Trimethoxybenzoate]"
> 10,> 10,0.0278,,"COc1cc(/C=C/C(=O)OCCCCCCCN(CCCOC(=O)/C=C/c2cc(OC)c(OC)c(OC)c2)CCCOc2ccc3ccc(=O)oc3c2)cc(OC)c1OC [Compound 19, (E)-7-((3-((2-Oxo-2H-chromen-7-yl)oxy)propyl)(3-(((E)-3-(3,4,5-trimethoxyphenyl)acryloyl)oxy)propyl)amino)heptyl 3-(3,4,5-Trimethoxyphenyl)acrylate]"
> 10,> 10,0.0395,,"COc1cc(/C=C/C(=O)OCCCCCN(CCCOC(=O)/C=C/c2cc(OC)c(OC)c(OC)c2)CCCOc2ccc3ccc(=O)oc3c2)cc(OC)c1OC [Compound 1, (E)-5-((3-((2-Oxo-2H-chromen-7-yl)oxy)propyl)(3-(((E)-3-(3,4,5-trimethoxyphenyl)acryloyl)oxy)propyl)amino)pentyl 3-(3,4,5-Trimethoxyphenyl)acrylate]"
> 10,> 10,0.0242,,"COc1cc(/C=C/C(=O)OCCCCCN(CCCOC(=O)c2cc(OC)c(OC)c(OC)c2)CCCOc2ccc3ccc(=O)oc3c2)cc(OC)c1OC [Compound 2, (E)-3-((3-((2-Oxo-2H-chromen-7-yl)oxy)propyl)(5-((3-(3,4,5-trimethoxyphenyl)acryloyl)oxy)pentyl)amino)propyl 3,4,5-Trimethoxybenzoate]"
> 10,> 10,0.0183,,"COc1cc(C(=O)OCCCCCCCN(CCCOC(=O)c2cc(OC)c(OC)c(OC)c2)CCCOc2ccc3ccc(=O)oc3c2)cc(OC)c1OC [Compound 23, 7-((3-((2-Oxo-2H-chromen-7-yl)oxy)propyl)(3-((3,4,5-trimethoxybenzoyl)oxy)propyl)amino)heptyl 3,4,5-Trimethoxybenzoate]"
> 10,> 10,0.0717,,"COc1cc(/C=C/C(=O)OCCCN(CCCCCCOC(=O)c2cc(OC)c(OC)c(OC)c2)CCCOc2ccc3ccc(=O)oc3c2)cc(OC)c1OC [Compound 13, (E)-6-((3-((2-Oxo-2H-chromen-7-yl)oxy)propyl)(3-((3-(3,4,5-trimethoxyphenyl)acryloyl)oxy)propyl)amino)hexyl 3,4,5-Trimethoxybenzoate]"
> 10,> 10,0.104,,"COc1cc(/C=C/C(=O)OCCCN(CCCCCOC(=O)c2c3ccccc3cc3ccccc23)CCCOc2ccc3ccc(=O)oc3c2)cc(OC)c1OC [Compound 7, (E)-5-((3-((2-Oxo-2H-chromen-7-yl)oxy)propyl)(3-((3-(3,4,5-trimethoxyphenyl)acryloyl)oxy)propyl)amino)pentyl Anthracene-9-carboxylate]"

# The remaining lines, values behind:
Compound,Ki [1] [µM],Ki [2] [µM],"Ki [3, 4] [µM]",Ki [3] [µM]
"COc1cc(/C=C/C(=O)OCCCCCCCN(CCCOC(=O)c2c3ccccc3cc3ccccc23)CCCOc2ccc3ccc(=O)oc3c2)cc(OC)c1OC [Compound 21, (E)-3-((3-((2-Oxo-2H-chromen-7-yl)oxy)propyl)(7-((3-(3,4,5-trimethoxyphenyl)acryloyl)oxy)heptyl)amino)propyl Anthracene-9-carboxylate]",> 10,> 10,0.0142,
"COc1cc(C(=O)OCCCCCCN(CCCOC(=O)c2c3ccccc3cc3ccccc23)CCCOc2ccc3ccc(=O)oc3c2)cc(OC)c1OC [Compound 15, 3-((3-((2-Oxo-2H-chromen-7-yl)oxy)propyl)(6-((3,4,5-trimethoxybenzoyl)oxy)hexyl)amino)propyl Anthracene-9-carboxylate]",> 10,> 10,0.0541,
"COc1cc(/C=C/C(=O)OCCCCCCN(CCCOC(=O)c2c3ccccc3cc3ccccc23)CCCOc2ccc3ccc(=O)oc3c2)cc(OC)c1OC [Compound 12, (E)-3-((3-((2-Oxo-2H-chromen-7-yl)oxy)propyl)(6-((3-(3,4,5-trimethoxyphenyl)acryloyl)oxy)hexyl)amino)propyl Anthracene-9-carboxylate]",> 10,> 10,0.0268,
"COc1cc(C(=O)OCCCCCN(CCCOC(=O)c2c3ccccc3cc3ccccc23)CCCOc2ccc3ccc(=O)oc3c2)cc(OC)c1OC [Compound 6, 3-((3-((2-Oxo-2H-chromen-7-yl)oxy)propyl)(5-((3,4,5-trimethoxybenzoyl)oxy)pentyl)amino)propyl Anthracene-9-carboxylate]",> 10,> 10,0.0362,
"COc1cc(/C=C/C(=O)OCCCN(CCCCCCCOC(=O)c2c3ccccc3cc3ccccc23)CCCOc2ccc3ccc(=O)oc3c2)cc(OC)c1OC [Compound 25, (E)-7-((3-((2-Oxo-2H-chromen-7-yl)oxy)propyl)(3-((3-(3,4,5-trimethoxyphenyl)acryloyl)oxy)propyl)amino)heptyl Anthracene-9-carboxylate]",> 10,> 10,0.0711,
"COc1cc(C(=O)OCCCN(CCCCCCCOC(=O)c2c3ccccc3cc3ccccc23)CCCOc2ccc3ccc(=O)oc3c2)cc(OC)c1OC [Compound 26, 7-((3-((2-Oxo-2H-chromen-7-yl)oxy)propyl)(3-((3,4,5-trimethoxybenzoyl)oxy)propyl)amino)heptyl Anthracene-9-carboxylate]",> 10,> 10,0.0413,
"COc1cc(/C=C/C(=O)OCCCN(CCCCCCOC(=O)c2c3ccccc3cc3ccccc23)CCCOc2ccc3ccc(=O)oc3c2)cc(OC)c1OC [Compound 16, (E)-6-((3-((2-Oxo-2H-chromen-7-yl)oxy)propyl)(3-((3-(3,4,5-trimethoxyphenyl)acryloyl)oxy)propyl)amino)hexyl Anthracene-9-carboxylate]",> 10,> 10,0.148,
"O=C(OCCCCCCCN(CCCOC(=O)c1c2ccccc2cc2ccccc12)CCCOc1ccc2ccc(=O)oc2c1)c1c2ccccc2cc2ccccc12 [Compound 27, 3-((7-((Anthracene-9-carbonyl)oxy)heptyl)(3-((2-oxo-2H-chromen-7-yl)oxy)propyl)amino)propyl Anthracene-9-carboxylate]",> 10,> 10,0.102,
"COc1cc(C(=O)OCCCN(CCCCCOC(=O)c2c3ccccc3cc3ccccc23)CCCOc2ccc3ccc(=O)oc3c2)cc(OC)c1OC [Compound 8, 5-((3-((2-Oxo-2H-chromen-7-yl)oxy)propyl)(3-((3,4,5-trimethoxybenzoyl)oxy)propyl)amino)pentyl Anthracene-9-carboxylate]",> 10,> 10,0.0937,
"O=C(OCCCCCN(CCCOC(=O)c1c2ccccc2cc2ccccc12)CCCOc1ccc2ccc(=O)oc2c1)c1c2ccccc2cc2ccccc12 [Compound 9, 3-((5-((Anthracene-9-carbonyl)oxy)pentyl)(3-((2-oxo-2H-chromen-7-yl)oxy)propyl)amino)propyl Anthracene-9-carboxylate]",> 10,> 10,0.137,
"O=C(OCCCCCCN(CCCOC(=O)c1c2ccccc2cc2ccccc12)CCCOc1ccc2ccc(=O)oc2c1)c1c2ccccc2cc2ccccc12 [Compound 18, 3-((6-((Anthracene-9-carbonyl)oxy)hexyl)(3-((2-oxo-2H-chromen-7-yl)oxy)propyl)amino)propyl Anthracene-9-carboxylate]",> 10,> 10,0.167,
